Assays:
[1] = test system: RD cells; test: Cytotoxicity of peptides on RD cells (Cell Titer-Glo); format: cell-based, human; settings: cell viability plotted against peptide concentration, Cell Titer-Glo (S1A-S1D Fig)
Method: To test whether Cathelicidin peptide (LL-37) and its analogues could inhibit enterovirus infection, we conducted viral infection inhibition test on RD cells, which are one of the most commonly used cells for enterovirus propagation. We first assessed the cytotoxicity of LL-37, LL-18, FF-18, and a short form of LL-37 (DL-37) (Fig 1A), and all the peptides tested have a CC50 over 50 μM (S1A–S1D Fig). We then chose lower concentrations to test their antiviral activity. […] In addition, EV71 infection could cause cytopathic effect (CPE) on RD cells, and peptide could rescue EV71-induced cell death as assayed by crystal violet staining (Fig 1E) or cellular ATP content measurement (Fig 1F).
(§1) Cell viability assays were carried out using the Cell Titer-Glo Luminescent Cell Viability Assay Kit (Promega, Madison, WI) following the manufacturer’s instructions. Luminescence signals were measured using a BioTek Neo2 microplate reader.
(A-D) Cell viability of RD cells treated with the indicated amount of DL-37 (A), LL-37 (B), LL-18 (C), or FF-18 (D) was plotted against peptide concentration, and the cytotoxicity was determined. (E) EV71 virus pre-incubated with indicated amounts of DL-37, and the cell viability was determined 24 h.p.i. ***, P<0.001. (F-G) CVB5 (F) or Echo7 (G) virus pre-incubated with 0.3, 0.9, or 1.5 μM of peptides were used to infect RD cells. Cell viability was determined 24 h.p.i. ***, P<0.001. (H-I) CVB5 (H) or Echo7 (I) virus pre-incubated with 3, 6, or 12 μM of peptides were used to infect RD cells. Cell viability was determined 24 h.p.i. ***, P<0.001. (TIF) Click here for additional data file.

[2] = test system: EV71 virus; test: EV71 infection inhibition on RD cells (VP1 immunoblot, viral titer, cell viability/CPE); format: cell-based, enterovirus 71 (EV71); settings: RD cells; for inhibition of EV71 infection at 0.3, 0.9, or 1.5 μM / inhibition of EV71 infection at higher concentration: cell viability or viral titer 24 h.p.i; for inhibition of EV71 infection at 0.3, 0.9, or 1.5 μM: 0.3, 0.9, or 1.5 μM peptide; for inhibition of EV71 infection at higher concentration: much higher concentration than 1.5 μM
Method: Synthetic peptides were purchased from Bioyears Co. Ltd. (Wuhan, China) with purity of more than 95% and dissolved in PBS. To test their inhibitory effects, the EV71 virus (MOI = 1) was incubated with the indicated amount of peptide at room temperature for 1 hr before the mixture was added to RD cells and maintained throughout the experiment. Cell viability, viral titer, or viral protein expression was determined 24 h.p.i. For the time-of-addition experiment, viruses were either pre-incubated with peptides (for the -2 and -1 time points), the mixture was added to the cells simultaneously (for 0 time point), or peptides were added after virus infection (for 1, 2, 4 and 7 h time points) and the virus/peptide was maintained in the culture before cell viability, viral titer, or viral protein expression was determined 24 h.p.i. The TCID50 of the virus was calculated according to the Reed-Muench method.
Cells were treated as described and harvested with LDS sample buffer (Thermo Fisher Scientific). After denaturation, samples were separated on 10% SDS-PAGE gel and then transferred to a polyvinylidene fluoride (PVDF) membrane. The proteins were blocked using 5% skimmed milk and probed with the corresponding antibodies. The following antibodies were used in this study: EV71 VP1 polyclonal antibody (GeneTex, Taiwan, China), β-Actin antibody (Zen BioScience, Chengdu, China), pan-Enterovirus Monoclonal antibody (Thermo Fisher Scientific). The chemiluminescence signals were visualized using ECL Advance reagents (Mishubio, China), and the images were acquired using the FUSION Solo S Imaging System (VILBER, France).
as §1
For crystal violet staining, cells treated as indicated were first washed once with PBS, followed by fixation with 4% PFA. Cells were then stained with 0.5% crystal violet for 2 hrs before they were extensively washed with water.

[3] = test system: EV71 virus; test: 1H NMR titration of peptide with EV71 virus; format: binding, enterovirus 71 (EV71); settings: molar ratio peptide to virus 90:1, 800 MHz, 298k
Method: (§2) The NMR titrations were performed on a Bruker 800 MHz (Avance NEO) spectrometer equipped with cryo-probe. The molar ratio of the peptide to the virus was 90:1. The experiments were recorded using zgespg pulse for 128 scans at 298k and the results were analyzed by Topspin.

[4] = test system: CVB5 virus; test: 1H NMR titration of peptide with CVB5 virus; format: binding, coxsackievirus B5; settings: molar ratio peptide to virus 90:1, 800 MHz, 298k
Method: as §2

[5] = test system: EV71 virions; test: Viral particle stability thermal release assay (PaSTRY); parameters: species or system enterovirus 71 (EV71); settings: EV71 MOI = 10 pre-incubated with LL-18 or NaCl, SYBR green II, heated 25°C to 80°C; PBS control around 45°C
Method: Fig 6 LL-18 stabilizes the viral particles by inhibiting uncoating. (A) EV71 virus (MOI = 10) was pre-incubated with PBS, indicated amount of LL-18 or NaCl for 1 hr and then mixed with SYBR green dyes II before they were heated to indicated temperatures. The fluorescent signals were measured and plotted against temperature. PBS was used as a negative control. (B) EV71 virus (MOI = 10) was pre-incubated with PBS, LL-18, or 12s for 2 hrs. Half of the samples were then treated with 1.5 μg SCARB2 protein and incubated at 37°C for 2 hrs at pH 5.5. Samples were then subjected to ultracentrifugation as detailed in materials and methods. The numbers above represent the fractions collected from top to bottom.
EV71 viruses were preincubated with either PBS, NaCl or the indicated amount of LL-18 at room temperature for 2 hrs, before Sybr green II dye (3× working concentration, Solarbio, China) and RNase inhibitor (1 U/μL, Thermo Scientific) were added. The mixture was heated from 25°C to 80°C with an increment of 0.5°C for 30 seconds, and the fluorescence from SYBR green was monitored with a QuantGene 9600 real-time PCR system (Bioer, China).

Compound	CC50 [1]	inhibition of EV71 infection at 0.3, 0.9, or 1.5 μM [2]	inhibition of EV71 infection at higher concentration [2]	inhibition of EV71 infection (overall conclusion) ([2]; VP1 expression, viral titer, crystal violet and Cell Titer Glo 24 h.p.i)	interaction of peptide with EV71 virus by 1H 1D NMR (amide region) [3]	interaction of peptide with CVB5 virus by 1H 1D NMR (amide region) [4]	temperature of peak SYBR green fluorescence intensity (RNA release) [5] [°C]
CC[C@H](C)[C@H](NC(=O)[C@H](CCCCN)NC(=O)[C@H](CCC(=O)O)NC(=O)[C@H](CCCCN)NC(=O)[C@H](CO)NC(=O)[C@H](CCCCN)NC(=O)[C@H](CCCNC(=N)N)NC(=O)[C@@H](N)Cc1ccccc1)C(=O)NCC(=O)N[C@@H](CCCCN)C(=O)N[C@@H](CCC(=O)O)C(=O)N[C@@H](Cc1ccccc1)C(=O)N[C@@H](CCCCN)C(=O)N[C@@H](CCCNC(=N)N)C(=O)N[C@H](C(=O)N[C@H](C(=O)N[C@@H](CCC(N)=O)C(=O)N[C@@H](CCCNC(=N)N)C(=O)N[C@H](C(=O)N[C@@H](CCCCN)C(=O)N[C@@H](CC(=O)O)C(=O)N[C@@H](Cc1ccccc1)C(=O)N[C@@H](CC(C)C)C(=O)N[C@@H](CCCNC(=N)N)C(=O)N[C@@H](CC(N)=O)C(=O)N[C@@H](CC(C)C)C(=O)N[C@H](C(=O)O)C(C)C)[C@@H](C)CC)C(C)C)[C@@H](C)CC (racemic) [DL-37]	over 50 μM	could not inhibit EV71 infection	only showed inhibition at a much higher concentration	little antiviral activity	–	–	–
CC[C@H](C)[C@H](NC(=O)[C@H](CCCCN)NC(=O)[C@H](CCC(=O)O)NC(=O)[C@H](CCCCN)NC(=O)[C@H](CO)NC(=O)[C@H](CCCCN)NC(=O)[C@H](CCCNC(=N)N)NC(=O)[C@H](Cc1ccccc1)NC(=O)[C@H](Cc1ccccc1)NC(=O)[C@H](CC(=O)O)NC(=O)CNC(=O)[C@H](CC(C)C)NC(=O)[C@@H](N)CC(C)C)C(=O)NCC(=O)N[C@@H](CCCCN)C(=O)N[C@@H](CCC(=O)O)C(=O)N[C@@H](Cc1ccccc1)C(=O)N[C@@H](CCCCN)C(=O)N[C@@H](CCCNC(=N)N)C(=O)N[C@H](C(=O)N[C@H](C(=O)N[C@@H](CCC(N)=O)C(=O)N[C@@H](CCCNC(=N)N)C(=O)N[C@H](C(=O)N[C@@H](CCCCN)C(=O)N[C@@H](CC(=O)O)C(=O)N[C@@H](Cc1ccccc1)C(=O)N[C@@H](CC(C)C)C(=O)N[C@@H](CCCNC(=N)N)C(=O)N[C@@H](CC(N)=O)C(=O)N[C@@H](CC(C)C)C(=O)N[C@H](C(=O)N1CCC[C@H]1C(=O)N[C@@H](CCCNC(=N)N)C(=O)N[C@H](C(=O)N[C@@H](CCC(=O)O)C(=O)N[C@@H](CO)C(=O)O)[C@@H](C)O)C(C)C)[C@@H](C)CC)C(C)C)[C@@H](C)CC [LL-37, reference compound]	over 50 μM	could not inhibit EV71 infection	only showed inhibition at a much higher concentration	–	no interaction between the peptide and viruses	no interaction between the peptide and viruses	–
[Cl-].[Na+] [NaCl, reference compound]	–	–	–	–	–	–	55

Reference: article PMC10846744, “Cathelicidin peptide analogues inhibit EV71 infection through blocking viral entry and uncoating” (PLOS Pathogens, 2024)
